According to paper PMC6117704, “Novel Natural Angiotensin Converting Enzyme (ACE)-Inhibitory Peptides Derived from Sea Cucumber-Modified Hydrolysates by Adding Exogenous Proline and a Study of Their Structure–Activity Relationship” (Marine Drugs, 2018):
Where two headings read alike, the source gives them in different places. Peptide text beside a SMILES is read from it.

Legend:
rabbit-lung ACE = molecular target: T1, rabbit-lung ACE (Oryctolagus cuniculus, UniProt P12822); assay: ACE-inhibitory activity of synthetic peptides; type: biochemical; details: synthesized peptides; HHL substrate (8.3 mM Hip-His-Leu in 50 mM sodium borate, 0.5 M NaCl, pH 8.3), ACE 25 mU/mL, pre-incubation 37 °C 10 min, 60 min, UV 228 nm; mean ± SD (n = 3)
T1 construct: rabbit-lung ACE and Sephadex G-15 were purchased from Sigma Chemical Ltd; purchased Sigma Chemical Ltd (St. Louis, MO, USA); host or cells: rabbit lung tissue
T1 sequence (P12822 34-1310): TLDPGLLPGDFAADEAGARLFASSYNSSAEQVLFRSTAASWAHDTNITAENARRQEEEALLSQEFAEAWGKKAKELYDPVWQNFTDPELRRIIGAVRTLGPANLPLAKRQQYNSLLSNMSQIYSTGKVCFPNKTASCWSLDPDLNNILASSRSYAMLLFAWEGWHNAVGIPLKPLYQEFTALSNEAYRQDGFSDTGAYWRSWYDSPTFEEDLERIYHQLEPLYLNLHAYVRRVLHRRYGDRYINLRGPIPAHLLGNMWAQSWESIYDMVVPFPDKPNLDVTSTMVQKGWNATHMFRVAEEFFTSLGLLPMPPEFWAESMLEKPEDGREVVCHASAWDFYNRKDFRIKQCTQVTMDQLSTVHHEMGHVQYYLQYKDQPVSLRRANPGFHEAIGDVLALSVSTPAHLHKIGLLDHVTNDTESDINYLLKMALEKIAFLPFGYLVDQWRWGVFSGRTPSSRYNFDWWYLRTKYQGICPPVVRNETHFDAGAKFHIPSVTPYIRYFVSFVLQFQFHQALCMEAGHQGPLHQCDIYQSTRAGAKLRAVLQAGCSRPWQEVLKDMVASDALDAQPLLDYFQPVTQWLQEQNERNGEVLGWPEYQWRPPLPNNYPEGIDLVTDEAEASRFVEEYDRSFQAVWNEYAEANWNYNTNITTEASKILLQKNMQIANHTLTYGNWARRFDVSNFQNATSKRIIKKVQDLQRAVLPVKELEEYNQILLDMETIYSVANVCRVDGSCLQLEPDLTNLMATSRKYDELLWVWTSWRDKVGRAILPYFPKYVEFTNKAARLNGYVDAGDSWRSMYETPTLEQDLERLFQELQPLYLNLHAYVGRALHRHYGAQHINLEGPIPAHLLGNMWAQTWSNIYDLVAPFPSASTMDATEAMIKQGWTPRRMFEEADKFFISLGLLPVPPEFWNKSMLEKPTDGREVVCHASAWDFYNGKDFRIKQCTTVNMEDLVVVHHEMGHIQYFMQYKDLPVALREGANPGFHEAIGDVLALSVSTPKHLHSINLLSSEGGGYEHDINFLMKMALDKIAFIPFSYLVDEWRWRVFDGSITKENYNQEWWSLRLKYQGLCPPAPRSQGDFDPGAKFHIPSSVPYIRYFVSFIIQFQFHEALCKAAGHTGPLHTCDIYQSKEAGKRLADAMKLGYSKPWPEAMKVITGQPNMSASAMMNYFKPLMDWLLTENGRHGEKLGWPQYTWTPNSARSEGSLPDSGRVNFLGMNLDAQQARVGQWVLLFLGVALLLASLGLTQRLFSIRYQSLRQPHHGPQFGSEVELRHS
Procedure: Sea cucumber (Acaudina molpadioidea) was purchased from a local market (Qingdao, China) and its water content was determined to be 12.65% per 20 g on average. Hippuryl histidyl leucine (HHL), rabbit-lung ACE and Sephadex G-15 were purchased from Sigma Chemical Ltd (St. Louis, MO, USA). Papain (from papaya) and trypsin (from bovine sources) were purchased from Nanning Pangbo Biological Engineering Ltd (Nanning, China). O-Pthaldialdehyde (OPA) was purchased from Beijing Soularbio Technology Ltd. (Beijing, China). Proline (PubChem CID 145742), valine (PubChem CID 6287), tyrosine (PubChem CID 6057), tryptophan (PubChem CID 6305), leucine (PubChem CID 6106) and phenylalanine (PubChem CID 6140) were purchased from Sinopharm Chemical Reagent Ltd. (Shanghai, China). All other chemicals were obtained from local commercial sources and were of the highest purity available.
The ACE-inhibitory activity of the hydrolysates was measured according to a previously reported protocol with slight modifications. Briefly, a sample solution with 40 μL of ACE solution (25 mU/mL) was pre-incubated at 37 °C for 10 min. After this, the mixture was incubated with 50 μL of the substrate (8.3 mM Hip-His-Leu in 50 mM sodium borate buffer containing 0.5 M NaCl at pH of 8.3) for 60 min at the same temperature. The reaction was terminated by the addition of 1.0 M HCl (200 μL). The absorbance of hippuric acid in the incubated solution was determined at 228 nm using a UV-spectrophotometer (UV-2550, Shimadzu, Kyoto, Japan). The IC50 value was defined as the concentration of inhibitor that was needed to inhibit 50% of the ACE activity.
The molecular weights of peptides in the filtered hydrolysates were analyzed by MALDI-TOF (TOF 4800, Micromass Company, Manchester, UK). The amino acid sequences were determined in the positive ion mode by de novo sequencing. Subsequently, the peptides were synthesized using the solid phase method and purified by HPLC (ChinaPeptides Co. Ltd., Shanghai, China).

ACE = system: ACE; set-up: method as in 8 sources, ref [4]; PMID 29426427; doi:10.1016/j.foodchem.2018.01.047; 4. Sangsawad P. Roytrakul S. Choowongkomon K. Kitts D.D. Chen X.M. Meng G. Lichan E. Yongsawatdigul J. Transepithelial transport across Caco-2 cell monolayers of angiotensin converting enzyme (ACE) in ||| ref [20] = [20]; PMID 29426427; doi:10.1016/j.jff.2016.12.005; 20. Sangsawad P. Roytrakul S. Yongsawatdigul J. Angiotensin converting enzyme (ACE) inhibitory peptides derived from the simulated in vitro gastrointestinal digestion of cooked chicken breast J. Funct ||| ref [21] = [21]; doi:10.1016/j.idairyj.2006.05.011; 21. Otte J. Shalaby S.M. Zakora M. Pripp A.H. El-Shabrawy S.A. Angiotensin-converting enzyme inhibitory activity of milk protein hydrolysates: Effect of substrate, enzyme and time of hydrolysis Int. D ||| ref [11] = [11]; doi:10.1080/10942912.2011.642048; 11. Sun H. Li T.J. Zhao X.H. ACE inhibition and enzymatic resistance in vitro of a casein hydrolysate subjected to plastein reaction in the presence of extrinsic proline and ethanol- or methanol-eater ||| ref [26] = [26]; PMID 24054237; doi:10.1016/j.foodchem.2013.07.067; 26. Ngo D.H. Ryu B. Kim S.K. Active peptides from skate ( Okamejei kenojei ) skin gelatin diminish angiotensin-I converting enzyme activity and intracellular free radical-mediated oxidation Food Chem. ||| ...; details: cited from earlier work

CC(C)C[C@H](NC(=O)[C@@H](N)CC(N)=O)C(=O)NCC(=O)O [NLG] (H-Asn-Leu-Gly-OH)
IC50 (rabbit-lung ACE): 17.4 ± 0.89 µM

CC(C)[C@H](NC(=O)[C@@H](N)CC(N)=O)C(=O)N[C@@H](C)C(=O)O [NVA] (H-Asn-Val-Ala-OH)
IC50 (rabbit-lung ACE): 12.7 ± 1.5 µM

CC(C)C[C@H](NC(=O)[C@H](CC(N)=O)NC(=O)[C@@H]1CCCN1)C(=O)NCC(=O)O [PNLG] (H-PNLG-OH)
IC50 (rabbit-lung ACE): 13.2 ± 0.39 µM

CC(C)[C@H](NC(=O)[C@H](CC(N)=O)NC(=O)[C@@H]1CCCN1)C(=O)N[C@@H](C)C(=O)O [PNVA] (H-PNVA-OH)
IC50 (rabbit-lung ACE): 8.18 ± 0.24 µM

AGPPGSDGQPGAK
IC50 (ACE; ref [38]): 420 ± 20 µM

KPLL
ACE-inhibitory activity (in words) (ACE; ref [20]): high ACE-inhibitory activity

LGPLGHQ
ACE-inhibitory activity (in words) (ACE; ref [26]): high ACE-inhibitory activity

MVGSAPGVL
ACE-inhibitory activity (in words) (ACE; ref [26]): high ACE-inhibitory activity

VYPFPGPIPNSLPQNIPP
ACE-inhibitory activity (in words) (ACE; ref [21]): high ACE-inhibitory activity
